# Results published in patent publication US7883715B2, “Pesticide compositions containing dicarboxylic acids” (Monsanto Technology LLC, priority 2002, dated 2011).
# Like-named read-outs stand apart in the source and are kept apart here.
# Experiments:
# TRZVX = assay: Greenhouse herbicidal effectiveness, TRZVX; assay type: in vivo, wheat; settings: Table 19A, 16 days after treatment
# Excerpt: (§1) The following greenhouse testing procedure was used for evaluating compositions of the Examples to determine herbicidal effectiveness, except where otherwise indicated.
# (§2) Seeds of the plant species indicated were planted in 88 mm square pots in a soil mix which was previously sterilized and prefertilized with a 14-14-14 NPK slow release fertilizer at a rate of 3.6 kg/m3. The pots were placed in a greenhouse with sub-irrigation. About one week after emergence, seedlings were thinned as needed, including removal of any unhealthy or abnormal plants, to create a uniform series of test pots.
# (§3) The plants were maintained for the duration of the test in the greenhouse where they received a minimum of 14 hours of light per day. […] Exposure temperatures were not precisely controlled but averaged about 29° C. during the day and about 21° C. during the night. Plants were sub-irrigated throughout the test to ensure adequate soil moisture levels.
# (§4) Pots were assigned to different treatments in a fully randomized experimental design with 6 replications. A set of pots was left untreated as a reference against which affects of the treatments could later be evaluated.
# (§5) Application of glyphosate compositions was made by spraying with a track sprayer fitted with a 9501E nozzle calibrated to deliver a spray volume of 93 liters per hectare (l/ha) at a pressure of 165 kilopascals (kPa). After treatment, pots were returned to the greenhouse until ready for evaluation.
# (§6) Treatments were made using dilute aqueous compositions. These could be prepared as spray compositions directly from their ingredients, or by dilution with water of preformulated concentrate compositions.
# (§7) For evaluation of herbicidal effectiveness, all plants in the test were examined by a single practiced technician, who recorded percent control, a visual measurement of the effectiveness of each treatment by comparison with untreated plants. […] The reported % control values represent the average for all replicates of each treatment.
# ABUTH = assay: Greenhouse herbicidal effectiveness, ABUTH; assay type: in vivo, velvetleaf; settings: for efficacy ABUTH: Table 19A, 16 days after treatment; for inhibition at 75 g/ha / inhibition at 100 g/ha / inhibition at 150 g/ha / inhibition at 200 g/ha: Abutilon theophrasti, 408 h, 17 days after treatment; for inhibition at 75 g/ha: 75 g a.e./ha; for inhibition at 150 g/ha: 150 g a.e./ha; for % inhibition ABUTH (14 DAT) / % inhibition ABUTH (20 DAT): oxalate/oxalic acid alone, Table 44A
# Excerpt: as §1, §2, §3, §4, §5, §6, §7
# ECHCF = assay: Greenhouse herbicidal effectiveness, ECHCF; assay type: in vivo, Japanese millet, barnyardgrass; settings: for efficacy ECHCF: Table 19A, 16 days after treatment; for inhibition at 75 g/ha / inhibition at 100 g/ha / inhibition at 150 g/ha / inhibition at 200 g/ha: 408 h, 17 days after treatment; for inhibition at 75 g/ha: 75 g a.e./ha; for inhibition at 150 g/ha: 150 g a.e./ha
# Excerpt: as §1, §2, §3, §4, §5, §6, §7
# [1] = 30 g a.e./ha, tank mix OTH1 1 % v/v
# [2] = 70 g a.e./ha, tank mix OTH1 1 % v/v
# [3] = 100 g a.e./ha, tank mix OTH1 1 % v/v
# [4] = 200 g a.e./ha, tank mix OTH1 1 % v/v
# [5] = Table 19B, OTH1 1 % v/v, read-out: % inhibition ABUTH
# [6] = Table 19B, no OTH22, no OTH1, read-out: % inhibition ABUTH
# [7] = Table 19B, OTH1 1 % v/v, read-out: % inhibition ECHCF
# [8] = Table 19B, no OTH22, no OTH1, read-out: % inhibition ECHCF
# [9] = 1 g a.e./ha, tank mix OTH1 1 % v/v
# [10] = 3 g a.e./ha, tank mix OTH1 1 % v/v
# [11] = 5 g a.e./ha, tank mix OTH1 1 % v/v
# [12] = 10 g a.e./ha, tank mix OTH1 1 % v/v
# [13] = read-out: % inhibition ABUTH, Table 19B, OTH1 1 % v/v
# [14] = read-out: % inhibition ABUTH, Table 19B, no OTH22, no OTH1
# [15] = read-out: % inhibition ABUTH, Table 19B, 100 g a.e./ha, OTH1 1 % v/v
# [16] = read-out: % inhibition ABUTH, Table 19B, 100 g a.e./ha, no OTH22, no OTH1
# [17] = read-out: % inhibition ABUTH, Table 19B, 200 g a.e./ha, OTH1 1 % v/v
# [18] = read-out: % inhibition ABUTH, Table 19B, 200 g a.e./ha, no OTH22, no OTH1
# [19] = read-out: % inhibition ECHCF, Table 19B, OTH1 1 % v/v
# [20] = read-out: % inhibition ECHCF, Table 19B, no OTH22, no OTH1
# [21] = read-out: % inhibition ECHCF, Table 19B, 100 g a.e./ha, OTH1 1 % v/v
# [22] = read-out: % inhibition ECHCF, Table 19B, 100 g a.e./ha, no OTH22, no OTH1
# [23] = read-out: % inhibition ECHCF, Table 19B, 200 g a.e./ha, OTH1 1 % v/v
# [24] = read-out: % inhibition ECHCF, Table 19B, 200 g a.e./ha, no OTH22, no OTH1
compound,measurement,setting,value
CCc1cnc(C2=NC(C)(C(C)C)C(=O)N2)c(C(=O)O)c1 (centres unmarked) [imazethapyr],efficacy TRZVX,"TRZVX; 30 g a.e./ha, no OTH1",14
same,efficacy TRZVX,TRZVX; [1],25
same,efficacy TRZVX,"TRZVX; 70 g a.e./ha, no OTH1",41
same,efficacy TRZVX,TRZVX; [2],33
same,efficacy TRZVX,"TRZVX; 100 g a.e./ha, no OTH1",52
same,efficacy TRZVX,TRZVX; [3],50
same,efficacy TRZVX,"TRZVX; 200 g a.e./ha, no OTH1",73
same,efficacy TRZVX,TRZVX; [4],67
same,efficacy ABUTH,"ABUTH; 30 g a.e./ha, no OTH1",73
same,efficacy ABUTH,ABUTH; [1],72
same,efficacy ABUTH,"ABUTH; 70 g a.e./ha, no OTH1",80
same,efficacy ABUTH,ABUTH; [2],81
same,efficacy ABUTH,"ABUTH; 100 g a.e./ha, no OTH1",82
same,efficacy ABUTH,ABUTH; [3],85
same,efficacy ABUTH,"ABUTH; 200 g a.e./ha, no OTH1",85
same,efficacy ABUTH,ABUTH; [4],89
same,efficacy ECHCF,"ECHCF; 30 g a.e./ha, no OTH1",68
same,efficacy ECHCF,ECHCF; [1],66
same,efficacy ECHCF,"ECHCF; 70 g a.e./ha, no OTH1",72
same,efficacy ECHCF,ECHCF; [2],71
same,efficacy ECHCF,"ECHCF; 100 g a.e./ha, no OTH1",75
same,efficacy ECHCF,ECHCF; [3],74
same,efficacy ECHCF,"ECHCF; 200 g a.e./ha, no OTH1",87
same,efficacy ECHCF,ECHCF; [4],80
CCOc1cc(Oc2ccc(C(F)(F)F)cc2Cl)ccc1[N+](=O)[O-] [oxyfluorfen],inhibition at 75 g/ha,ABUTH; [5],80%
same,inhibition at 75 g/ha,ABUTH; [6],81%
same,inhibition at 100 g/ha,"ABUTH; Table 19B, 100 g a.e./ha, OTH1 1 % v/v, read-out: % inhibition ABUTH",82%
same,inhibition at 100 g/ha,"ABUTH; Table 19B, 100 g a.e./ha, no OTH22, no OTH1, read-out: % inhibition ABUTH",82%
same,inhibition at 150 g/ha,ABUTH; [5],87%
same,inhibition at 150 g/ha,ABUTH; [6],84%
same,inhibition at 200 g/ha,"ABUTH; Table 19B, 200 g a.e./ha, OTH1 1 % v/v, read-out: % inhibition ABUTH",92%
same,inhibition at 200 g/ha,"ABUTH; Table 19B, 200 g a.e./ha, no OTH22, no OTH1, read-out: % inhibition ABUTH",91%
same,inhibition at 75 g/ha,ECHCF; [7],0%
same,inhibition at 75 g/ha,ECHCF; [8],0%
same,inhibition at 100 g/ha,"ECHCF; Table 19B, 100 g a.e./ha, OTH1 1 % v/v, read-out: % inhibition ECHCF",0%
same,inhibition at 100 g/ha,"ECHCF; Table 19B, 100 g a.e./ha, no OTH22, no OTH1, read-out: % inhibition ECHCF",0%
same,inhibition at 150 g/ha,ECHCF; [7],0%
same,inhibition at 150 g/ha,ECHCF; [8],0%
same,inhibition at 200 g/ha,"ECHCF; Table 19B, 200 g a.e./ha, OTH1 1 % v/v, read-out: % inhibition ECHCF",2%
same,inhibition at 200 g/ha,"ECHCF; Table 19B, 200 g a.e./ha, no OTH22, no OTH1, read-out: % inhibition ECHCF",3%
COc1cc(OC)nc(NC(=O)NS(=O)(=O)c2ncccc2C(=O)N(C)C)n1 [nicosulfuron],efficacy TRZVX,"TRZVX; 1 g a.e./ha, no OTH1",5
same,efficacy TRZVX,TRZVX; [9],3
same,efficacy TRZVX,"TRZVX; 3 g a.e./ha, no OTH1",15
same,efficacy TRZVX,TRZVX; [10],25
same,efficacy TRZVX,"TRZVX; 5 g a.e./ha, no OTH1",50
same,efficacy TRZVX,TRZVX; [11],47
same,efficacy TRZVX,"TRZVX; 10 g a.e./ha, no OTH1",65
same,efficacy TRZVX,TRZVX; [12],67
same,efficacy ABUTH,"ABUTH; 1 g a.e./ha, no OTH1",0.8
same,efficacy ABUTH,ABUTH; [9],6
same,efficacy ABUTH,"ABUTH; 3 g a.e./ha, no OTH1",12
same,efficacy ABUTH,ABUTH; [10],8
same,efficacy ABUTH,"ABUTH; 5 g a.e./ha, no OTH1",14
same,efficacy ABUTH,ABUTH; [11],10
same,efficacy ABUTH,"ABUTH; 10 g a.e./ha, no OTH1",28
same,efficacy ABUTH,ABUTH; [12],58
same,efficacy ECHCF,"ECHCF; 1 g a.e./ha, no OTH1",0.8
same,efficacy ECHCF,ECHCF; [9],4
same,efficacy ECHCF,"ECHCF; 3 g a.e./ha, no OTH1",13
same,efficacy ECHCF,ECHCF; [10],10
same,efficacy ECHCF,"ECHCF; 5 g a.e./ha, no OTH1",40
same,efficacy ECHCF,ECHCF; [11],37
same,efficacy ECHCF,"ECHCF; 10 g a.e./ha, no OTH1",51
same,efficacy ECHCF,ECHCF; [12],42
CN(C)C(=O)Nc1ccc(Cl)c(Cl)c1 [diuron],inhibition at 75 g/ha,ABUTH; [13],0%
same,inhibition at 75 g/ha,ABUTH; [14],0%
same,inhibition at 100 g/ha,ABUTH; [15],0%
same,inhibition at 100 g/ha,ABUTH; [16],0%
same,inhibition at 150 g/ha,ABUTH; [13],2%
same,inhibition at 150 g/ha,ABUTH; [14],5%
same,inhibition at 200 g/ha,ABUTH; [17],10%
same,inhibition at 200 g/ha,ABUTH; [18],17%
same,inhibition at 75 g/ha,ECHCF; [19],0%
same,inhibition at 75 g/ha,ECHCF; [20],0%
same,inhibition at 100 g/ha,ECHCF; [21],0%
same,inhibition at 100 g/ha,ECHCF; [22],0%
same,inhibition at 150 g/ha,ECHCF; [19],0%
same,inhibition at 150 g/ha,ECHCF; [20],0%
same,inhibition at 200 g/ha,ECHCF; [23],0%
same,inhibition at 200 g/ha,ECHCF; [24],0%
CP(=O)(O)CCC(N)C(=O)O (centres unmarked) [glufosinate],inhibition at 75 g/ha,ABUTH; [13],68%
same,inhibition at 75 g/ha,ABUTH; [14],22%
same,inhibition at 100 g/ha,ABUTH; [15],82%
same,inhibition at 100 g/ha,ABUTH; [16],43%
same,inhibition at 150 g/ha,ABUTH; [13],90%
same,inhibition at 150 g/ha,ABUTH; [14],74%
same,inhibition at 200 g/ha,ABUTH; [17],98%
same,inhibition at 200 g/ha,ABUTH; [18],89%
same,inhibition at 75 g/ha,ECHCF; [19],95%
same,inhibition at 75 g/ha,ECHCF; [20],94%
same,inhibition at 100 g/ha,ECHCF; [21],96%
same,inhibition at 100 g/ha,ECHCF; [22],95%
same,inhibition at 150 g/ha,ECHCF; [19],99%
same,inhibition at 150 g/ha,ECHCF; [20],98%
same,inhibition at 200 g/ha,ECHCF; [23],100%
same,inhibition at 200 g/ha,ECHCF; [24],99%
N.N.O=C(O)C(=O)O [OTH1],% inhibition ABUTH (14 DAT),ABUTH; 2 g a.e./ha,"0, 0, 0, 0%"
same,% inhibition ABUTH (20 DAT),ABUTH; 2 g a.e./ha,"0, 0, 0, 0%"
same,% inhibition ABUTH (14 DAT),ABUTH; 3 g a.e./ha,"0, 0, 0, 0%"
same,% inhibition ABUTH (20 DAT),ABUTH; 3 g a.e./ha,"0, 0, 0, 0%"
same,% inhibition ABUTH (14 DAT),ABUTH; 4 g a.e./ha,"0, 0, 0, 0%"
same,% inhibition ABUTH (20 DAT),ABUTH; 4 g a.e./ha,"0, 0, 0, 0%"
same,% inhibition ABUTH (14 DAT),ABUTH; 5 g a.e./ha,"0, 0, 0, 0%"
same,% inhibition ABUTH (20 DAT),ABUTH; 5 g a.e./ha,"0, 0, 0, 0%"
